SMILES strings stand for the structures.

The results in this text go back to ChEMBL document CHEMBL2363022, “Malaria Box Schistosomiasis Screening Data” (2013).

What all share (assay type): functional
Set-up in all cases: scale not given here

Test [1] relates to Schistosoma mansoni.
Test [2] has as its system Schistosoma mansoni. This is another data set of the same source.
Test [3] relates to Schistosoma mansoni. The source holds these as a separate data set.

As for `CC(C)(C)c1ccc(C2CC3=Nc4ccccc4N(C(=O)c4ccccc4Cl)C(c4ccc(F)cc4)C3=C(O)C2)cc1` (configuration not stated), the Toxicity in the test on Schistosoma mansoni [1] was determined as 1; in the test on Schistosoma mansoni [2] it was 4; in the test on Schistosoma mansoni [3] it was 1.

As to `Cl.Cn1c(=O)n(C)c2cc(CNCCNc3ccnc4cc(Cl)ccc34)ccc21`, the Toxicity in the test on Schistosoma mansoni [1] stood at 1; in the test with Schistosoma mansoni [2], 1; with Schistosoma mansoni [3], 0.

`CCOc1ccc(N2C(N)=NC(N)=NC2(C)C)cc1.Cl`: the Toxicity with Schistosoma mansoni [1], in the test on Schistosoma mansoni [2] and in the test with Schistosoma mansoni [3] was 0 throughout.

In the case of `COc1ccc(-c2nonc2NC(=O)c2cccc(C)c2)cc1OC`, the Toxicity in the test with Schistosoma mansoni [1], in the test with Schistosoma mansoni [2] and in the test on Schistosoma mansoni [3] was 0 throughout.

Regarding `CCOC(=O)C1=C(c2ccccc2)N=c2sc(=Cc3cc(C)n(-c4ccc(F)cc4)c3C)c(=O)n2C1c1cccc(OC)c1OC` (configuration not stated), the Toxicity in the test with Schistosoma mansoni [1], with Schistosoma mansoni [2] and in the test on Schistosoma mansoni [3] was 0 throughout.

For the compound `Cc1ccccc1OCCSc1nc2ccc(NC(=O)c3ccccc3)cc2s1`, the Toxicity with Schistosoma mansoni [1], in the test with Schistosoma mansoni [2] and in the test with Schistosoma mansoni [3] was 0 each time.

Regarding `CCOC(=O)c1ccc2nc(-c3ccccc3)cc(O)c2c1`, the Toxicity in the test on Schistosoma mansoni [1] came to 0; in the test on Schistosoma mansoni [2], 4; in the test with Schistosoma mansoni [3] it was 0.

`O=C(NNc1cc(N2CCCC2)nc(N2CCCC2)n1)c1ccccc1`: the Toxicity with Schistosoma mansoni [1] amounted to 0; in the test on Schistosoma mansoni [2], 4; with Schistosoma mansoni [3], 1.

Regarding `O=C(Nc1ccc(Cl)c(Cl)c1)Nc1ccc(Cl)c(Cl)c1`, the Toxicity with Schistosoma mansoni [1] came out at 3; with Schistosoma mansoni [2], 4; with Schistosoma mansoni [3], 3.

With `CCOc1ccccc1CNC(=O)C1c2ccccc2C(=O)N(CC(C)C)C1c1cccs1` (configuration not stated), the results for the Toxicity in the test with Schistosoma mansoni [1], in the test on Schistosoma mansoni [2] and in the test with Schistosoma mansoni [3] were 0, 4 and 0, respectively.

With `CCOC(=O)C1=C(C)N=c2sc(=Cc3ccccc3O)c(=O)n2C1c1ccc(OC)c2ccccc12` (configuration not stated), the Toxicity is 0 in the test with Schistosoma mansoni [1], 4 in the test on Schistosoma mansoni [2] and 0 with Schistosoma mansoni [3].

`COc1cc(OC)c(N(C)C(=O)c2cc3c(s2)-c2ccccc2S(=O)(=O)C3)cc1Cl`: the Toxicity with Schistosoma mansoni [1], with Schistosoma mansoni [2] and in the test on Schistosoma mansoni [3] was 0 each time.

Take `CSC1=NC(=Nc2c(C)cccc2C)C2(CCC(C(C)(C)C)CC2)N1c1ccc(Cl)cc1` (configuration not stated): the figures for the Toxicity in the test with Schistosoma mansoni [1], in the test with Schistosoma mansoni [2] and in the test on Schistosoma mansoni [3] were 1, 0 and 1, respectively.

On to `CCN1CCN(c2c(C(=O)c3ccccc3)cnc3cc(OC)c(OC)cc23)CC1`, for which the Toxicity with Schistosoma mansoni [1], in the test on Schistosoma mansoni [2] and with Schistosoma mansoni [3] was 0 in each case.

For the compound `Cc1sc(NC(=O)c2ccco2)c(C(c2cccnc2)N2CCC(Cc3ccccc3)CC2)c1C` (configuration not stated), the figures for the Toxicity in the test on Schistosoma mansoni [1], in the test on Schistosoma mansoni [2] and in the test on Schistosoma mansoni [3] were 4, 4 and 1, respectively.

For the compound `CCCCNc1nc(NC(C)(C)C)nc(NC(C)(C)C)n1`, the figures for the Toxicity with Schistosoma mansoni [1], in the test on Schistosoma mansoni [2] and with Schistosoma mansoni [3] were 4, 4 and 0, respectively.

Turning to `CCOC(=O)c1c[nH]c2c(CC)cccc2c1=O`, the Toxicity in the test on Schistosoma mansoni [1] turned out to be 0; in the test on Schistosoma mansoni [2], 3; with Schistosoma mansoni [3], 0.

Take `COc1ccc2nc(C)cc(Nc3ccccc3O)c2c1`: the Toxicity in the test with Schistosoma mansoni [1], with Schistosoma mansoni [2] and in the test with Schistosoma mansoni [3] was 0 throughout.

For the compound `COc1ccc(C(=O)Nc2ccc(Cl)cc2C(=O)Nc2ccncc2)cc1`, the Toxicity with Schistosoma mansoni [1], in the test on Schistosoma mansoni [2] and with Schistosoma mansoni [3] was 0 throughout.

Regarding `COc1ccc2nc(N)nc(C)c2c1`, the figures for the Toxicity with Schistosoma mansoni [1], in the test on Schistosoma mansoni [2] and in the test on Schistosoma mansoni [3] were 0, 4 and 0, respectively.

Consider `Cc1cc(N(C)C)nc(Nc2ccc(NC(=O)Nc3ccccc3)cc2)n1`, for which the Toxicity is given as 3 in the test with Schistosoma mansoni [1], 3 in the test on Schistosoma mansoni [2] and 0 in the test on Schistosoma mansoni [3].

On to `Cc1ccc2nc(C)cc(Nc3cccc(C(F)(F)F)c3)c2c1.Cl`, for which the Toxicity was 2 with Schistosoma mansoni [1], 3 in the test on Schistosoma mansoni [2] and 2 with Schistosoma mansoni [3].

Regarding `COc1ccc(/C=C2/SC(=Nc3ccccc3)NC2=O)cc1`, the Toxicity with Schistosoma mansoni [1], in the test with Schistosoma mansoni [2] and with Schistosoma mansoni [3] was 0 each time.

For `CC(=O)NCCc1nc2ccccc2n1Cc1ccc(C(C)C)cc1`, the Toxicity with Schistosoma mansoni [1], with Schistosoma mansoni [2] and with Schistosoma mansoni [3] was 0 in each case.

Turning to `Cc1cccc(Nc2nc(N)c3ccccc3n2)c1.Cl`, the Toxicity worked out at 0 with Schistosoma mansoni [1], 0 in the test with Schistosoma mansoni [2] and 2 with Schistosoma mansoni [3].

`COc1cccc(C=Cc2nc(=O)c3ccccc3o2)c1OC`: the Toxicity in the test with Schistosoma mansoni [1], in the test on Schistosoma mansoni [2] and in the test with Schistosoma mansoni [3] was 0 each time.

Regarding `COc1cc(C(=O)ON=C(N)Cc2cccc3ccccc23)cc(OC)c1OC`, the figures for the Toxicity in the test with Schistosoma mansoni [1], with Schistosoma mansoni [2] and in the test with Schistosoma mansoni [3] were 3, 4 and 0, respectively.

In the case of `Cc1cc(N2CCN(C3CCCC3)CC2)n2c(nc3ccccc32)c1C#N`, the Toxicity in the test on Schistosoma mansoni [1], in the test on Schistosoma mansoni [2] and in the test with Schistosoma mansoni [3] was 0 in each case.

As to `Oc1ccc2ccccc2c1CNc1nc2ccccc2[nH]1`, the Toxicity is 0 with Schistosoma mansoni [1], 0 with Schistosoma mansoni [2] and 2 in the test on Schistosoma mansoni [3].

`Cc1cc(NC(=O)C2c3ccccc3C(=O)N(CC(C)C)C2c2cccs2)no1` (configuration not stated): the Toxicity in the test with Schistosoma mansoni [1], in the test on Schistosoma mansoni [2] and in the test with Schistosoma mansoni [3] was 0 in each case.

As for `O=C(NCCCN1CCC(N2CCCCC2)CC1)C1=Cc2cc(Br)ccc2OC1`, the figures for the Toxicity in the test with Schistosoma mansoni [1], with Schistosoma mansoni [2] and in the test on Schistosoma mansoni [3] were 1, 4 and 0, respectively.

As to `Cc1ccc(-c2cc3nc4c(c(O)n3n2)CCCC4)cc1`, the Toxicity with Schistosoma mansoni [1], with Schistosoma mansoni [2] and with Schistosoma mansoni [3] was 0 in each case.

Take `CN1CCN(c2ncnc3c2[nH]c2ccc(Cl)cc23)CC1`: the Toxicity with Schistosoma mansoni [1], in the test with Schistosoma mansoni [2] and in the test on Schistosoma mansoni [3] was 0 in each case.

As to `COc1cc(OC)cc(N2C(=O)N(Cc3ccc(C(C)(C)C)cc3)c3ccccc3S2(=O)=O)c1`, the Toxicity with Schistosoma mansoni [1], in the test on Schistosoma mansoni [2] and in the test with Schistosoma mansoni [3] was 0 in each case.

`Cn1c(=O)c2cc(C(=O)NCCCN3CCCCCC3)sc2c2ccccc21`: the Toxicity in the test on Schistosoma mansoni [1], in the test with Schistosoma mansoni [2] and in the test on Schistosoma mansoni [3] was 0 each time.

As to `OC(CNC1CCCCC1)Cn1c2ccccc2c2ccccc21` (configuration not stated), the Toxicity in the test with Schistosoma mansoni [1], in the test with Schistosoma mansoni [2] and with Schistosoma mansoni [3] was 0 each time.

Consider `Cc1ccc(Nc2nc(N)c3ccccc3n2)cc1Cl`, for which the Toxicity with Schistosoma mansoni [1], in the test on Schistosoma mansoni [2] and in the test with Schistosoma mansoni [3] was 2 throughout.

As for `CN(C)c1ccc(C(O)(c2ccc(N(C)C)cc2)c2ccc(N(C)C)cc2)cc1` [METHYLROSANILINE], the results for the Toxicity with Schistosoma mansoni [1], in the test on Schistosoma mansoni [2] and in the test on Schistosoma mansoni [3] were 2, 4 and 2, respectively.

In the case of `CCCCCCc1cc(O)c2c3c(c(=O)oc2c1)CCC(C)C3` (configuration not stated), the Toxicity with Schistosoma mansoni [1] is on record as 2; in the test on Schistosoma mansoni [2], 0; in the test with Schistosoma mansoni [3] it was 0.

With `c1ccc2c(NCCc3c[nH]c4ccccc34)c3ccccc3nc2c1`, the Toxicity in the test with Schistosoma mansoni [1] is listed as 4; with Schistosoma mansoni [2] it was 4; in the test with Schistosoma mansoni [3], 3.

For `O=C(Nc1ccsc1C(=O)NC1CCCCC1)c1ccc(F)cc1`, the Toxicity in the test with Schistosoma mansoni [1] is 0; in the test on Schistosoma mansoni [2] it was 0; in the test on Schistosoma mansoni [3], 2.

As for `CCCOCc1cc(CN2CCN(c3cccc(Cl)c3)CC2)c(O)c2ncccc12`, the figures for the Toxicity in the test on Schistosoma mansoni [1], with Schistosoma mansoni [2] and in the test on Schistosoma mansoni [3] were 4, 4 and 3, respectively.

In the case of `COc1ccc(N2CCN(C(CNC(=O)C3CCCCC3)c3ccc4c(c3)OCO4)CC2)cc1` (configuration not stated), the Toxicity with Schistosoma mansoni [1], in the test on Schistosoma mansoni [2] and with Schistosoma mansoni [3] was 0 in each case.

For `O=C(Nc1ccc(-c2nc3cc(NC(=O)c4ccc(Cl)cc4)ccc3[nH]2)cc1)c1ccc(Cl)cc1`, the Toxicity in the test on Schistosoma mansoni [1] was determined as 0; in the test on Schistosoma mansoni [2], 0; in the test on Schistosoma mansoni [3], 1.

In the case of `COc1ccc(Br)cc1C1Nc2ccc3ccccc3c2C2=C1C(=O)CC(c1ccccc1)C2` (configuration not stated), the Toxicity in the test on Schistosoma mansoni [1], in the test with Schistosoma mansoni [2] and in the test on Schistosoma mansoni [3] was 0 each time.

Turning to `CCc1ccc(CNCC(O)c2ccccc2)cc1.Cl` (configuration not stated), the Toxicity with Schistosoma mansoni [1] is reported as 0; in the test on Schistosoma mansoni [2] it was 1; in the test with Schistosoma mansoni [3] it was 1.

Turning to `Cc1ccc(F)cc1NC(=O)c1cc(Cl)ccc1Nc1ccccc1`, the Toxicity in the test on Schistosoma mansoni [1], with Schistosoma mansoni [2] and with Schistosoma mansoni [3] was 0 each time.

As for `O=C(NC1CCN(Cc2ccccc2)CC1)c1cc(-c2ccncc2)nc2ccc(Cl)cc12`, the Toxicity is on record as 0 in the test on Schistosoma mansoni [1], 2 with Schistosoma mansoni [2] and 0 in the test with Schistosoma mansoni [3].

Take `O=c1cc(NC2CCN(CCCc3ccccc3)CC2)c2cc(Cl)ccc2o1`: the Toxicity in the test on Schistosoma mansoni [1] worked out at 1; in the test with Schistosoma mansoni [2], 2; with Schistosoma mansoni [3] it was 2.

Consider `COc1ccccc1CNC(=O)CCn1c(=O)[nH]c2ccsc2c1=O`, for which the Toxicity with Schistosoma mansoni [1], in the test on Schistosoma mansoni [2] and with Schistosoma mansoni [3] was 0 each time.

`CCCCCCn1c(=N)n(CC(O)COc2cccc(C)c2)c2ccccc21.Cl` (configuration not stated): the Toxicity in the test on Schistosoma mansoni [1], in the test with Schistosoma mansoni [2] and with Schistosoma mansoni [3] was 4 throughout.

Regarding `O=C(Nc1cccc(-c2nc3ccccc3[nH]2)c1)c1cccc(NC(=O)c2ccco2)c1`, the Toxicity amounted to 0 with Schistosoma mansoni [1], 1 with Schistosoma mansoni [2] and 0 in the test with Schistosoma mansoni [3].

Regarding `O=c1c2c([nH]c3ccccc13)CCCC2`, the Toxicity in the test with Schistosoma mansoni [1], in the test with Schistosoma mansoni [2] and in the test with Schistosoma mansoni [3] was 0 throughout.

Turning to `O=C1CC(O)(C(F)(F)C(F)(F)F)Oc2ccccc21` (configuration not stated), the Toxicity with Schistosoma mansoni [1] came out at 0; with Schistosoma mansoni [2], 1; in the test on Schistosoma mansoni [3], 0.
